Experimental findings from ChEMBL document CHEMBL3407416, “Discovery of (R)-8-(1-(3,5-difluorophenylamino)ethyl)-N,N-dimethyl-2-morpholino-4-oxo-4H-chromene-6-carboxamide (AZD8186): a potent and selective inhibitor of PI3Kβ and PI3Kδ for the treatment of PTEN-deficient cancers” (J Med Chem, 2015) are described below.

Usually IC50 stands for the concentration that inhibits the measured activity by half. The Vd is the apparent volume that relates the amount in the body to the concentration in plasma or blood. A lower Vd goes with confinement near the circulation. What is called fraction unbound is free concentration divided by total concentration. Low values mean extensive binding, high ones weak binding. The term logD denotes the decadic logarithm of the distribution of all forms, ionised or not, between an organic phase and buffer at a given pH. In general, bioavailability refers to dose-corrected exposure relative to a reference, in per cent. Low readings indicate poor availability, high ones good availability. Usually AUC stands for the area under the concentration-time curve, a measure of exposure.

Activity calls are given as the source filed them. The rule behind the calls is not given here. Where only a bound is given, the exact number is not on record here.

The target of series [1] is T1, Phosphatidylinositol 4,5-bisphosphate 3-kinase catalytic subunit alpha isoform (Homo sapiens, UniProt P42336). Description: Inhibition of PI3Kalpha mutant human BT474 cells assessed as inhibition of Akt phosphorylation at […] after 2 hrs. It counts as cell-based. As to conditions: bt-474.
Target sequence in this assay (P42336 whole entry, looked up, canonical isoform): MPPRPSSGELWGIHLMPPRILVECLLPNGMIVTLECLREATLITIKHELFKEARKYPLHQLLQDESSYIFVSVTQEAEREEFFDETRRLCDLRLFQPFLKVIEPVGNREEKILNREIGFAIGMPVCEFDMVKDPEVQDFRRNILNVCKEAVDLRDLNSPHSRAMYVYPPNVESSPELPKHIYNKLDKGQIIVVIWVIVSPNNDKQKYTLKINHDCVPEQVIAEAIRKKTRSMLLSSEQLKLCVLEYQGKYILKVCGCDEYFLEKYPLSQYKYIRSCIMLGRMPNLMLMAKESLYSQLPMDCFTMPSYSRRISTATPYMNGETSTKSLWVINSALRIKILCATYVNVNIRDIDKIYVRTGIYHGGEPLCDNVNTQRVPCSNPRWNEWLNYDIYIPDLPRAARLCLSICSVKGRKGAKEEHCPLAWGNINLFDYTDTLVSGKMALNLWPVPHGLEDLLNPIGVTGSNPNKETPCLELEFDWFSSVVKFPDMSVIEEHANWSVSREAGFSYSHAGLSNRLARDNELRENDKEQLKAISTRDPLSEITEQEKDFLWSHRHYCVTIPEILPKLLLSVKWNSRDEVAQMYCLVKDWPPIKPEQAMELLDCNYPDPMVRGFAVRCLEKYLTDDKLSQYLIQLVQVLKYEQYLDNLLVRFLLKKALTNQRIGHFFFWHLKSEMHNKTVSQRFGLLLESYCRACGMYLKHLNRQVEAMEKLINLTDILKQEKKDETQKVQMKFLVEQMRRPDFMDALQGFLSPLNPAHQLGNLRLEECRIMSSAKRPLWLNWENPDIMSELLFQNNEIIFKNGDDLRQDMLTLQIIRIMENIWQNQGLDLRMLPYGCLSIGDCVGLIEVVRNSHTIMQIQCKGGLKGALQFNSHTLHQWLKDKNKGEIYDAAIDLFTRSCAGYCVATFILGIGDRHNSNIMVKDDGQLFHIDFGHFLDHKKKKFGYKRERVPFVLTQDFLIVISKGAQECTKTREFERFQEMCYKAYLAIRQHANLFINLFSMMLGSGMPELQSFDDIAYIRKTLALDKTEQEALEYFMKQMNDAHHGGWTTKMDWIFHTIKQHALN
A short description of series [2]: Intrinsic clearance in cryopreserved human hepatocytes measured per 10^6 cells. It counts as ADME, cell-based, Hepatocyte. As to conditions: read-out: CLH.
Series [3] has as its target T2, Phosphatidylinositol 4,5-bisphosphate 3-kinase catalytic subunit beta isoform (Homo sapiens, UniProt P42338). Kind of series: Inhibition of human recombinant PI3Kbeta using PIP2 by Kinase-Glo Plus assay.
Series [4] can be described thus: Volume of distribution in mouse at 5 umol/kg, iv administered as bolus dose in 20 to 30% DMA in PBS. It counts as ADME, organism-based. As to conditions: in vivo.
A short description of series [5]: Fraction unbound in dog plasma. It counts as ADME, cell-free, Canis lupus familiaris.
A short description of series [6]: Fraction unbound in human plasma. It counts as ADME, cell-free.
Series [7] deals with Phosphatidylinositol 4,5-bisphosphate 3-kinase catalytic subunit gamma isoform (Homo sapiens, UniProt P48736). Description: Inhibition of human recombinant PI3Kgamma using PIP2 by Kinase-Glo Plus assay.
Chain of Phosphatidylinositol 4,5-bisphosphate 3-kinase catalytic subunit gamma isoform (P48736 whole entry, canonical isoform): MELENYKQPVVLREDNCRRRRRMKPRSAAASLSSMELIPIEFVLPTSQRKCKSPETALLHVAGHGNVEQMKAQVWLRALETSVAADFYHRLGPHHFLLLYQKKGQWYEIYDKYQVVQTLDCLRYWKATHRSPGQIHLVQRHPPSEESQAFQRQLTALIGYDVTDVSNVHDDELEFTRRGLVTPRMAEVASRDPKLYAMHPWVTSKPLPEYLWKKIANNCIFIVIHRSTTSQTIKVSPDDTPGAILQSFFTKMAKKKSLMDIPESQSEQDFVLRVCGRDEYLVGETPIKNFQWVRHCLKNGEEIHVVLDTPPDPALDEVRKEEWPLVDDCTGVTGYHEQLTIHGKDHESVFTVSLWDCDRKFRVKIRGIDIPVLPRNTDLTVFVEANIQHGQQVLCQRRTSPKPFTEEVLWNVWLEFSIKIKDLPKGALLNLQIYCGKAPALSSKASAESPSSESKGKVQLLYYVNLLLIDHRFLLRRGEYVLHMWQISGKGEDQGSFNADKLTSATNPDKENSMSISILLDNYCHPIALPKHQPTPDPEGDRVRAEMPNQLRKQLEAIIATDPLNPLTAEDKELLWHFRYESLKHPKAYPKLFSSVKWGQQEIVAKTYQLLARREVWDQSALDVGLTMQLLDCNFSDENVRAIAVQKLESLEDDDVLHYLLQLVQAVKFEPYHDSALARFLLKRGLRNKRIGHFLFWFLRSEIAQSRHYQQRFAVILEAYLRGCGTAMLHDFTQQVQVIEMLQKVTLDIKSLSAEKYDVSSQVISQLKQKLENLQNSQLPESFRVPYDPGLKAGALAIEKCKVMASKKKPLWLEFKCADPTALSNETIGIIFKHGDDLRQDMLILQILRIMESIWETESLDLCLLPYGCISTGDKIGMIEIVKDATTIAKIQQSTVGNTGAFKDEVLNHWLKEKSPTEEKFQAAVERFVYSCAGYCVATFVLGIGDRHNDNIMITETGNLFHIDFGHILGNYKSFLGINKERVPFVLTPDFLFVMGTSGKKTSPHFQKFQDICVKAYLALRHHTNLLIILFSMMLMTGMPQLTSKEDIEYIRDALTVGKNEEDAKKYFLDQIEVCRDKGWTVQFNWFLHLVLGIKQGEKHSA
Series [8] can be described thus: Clearance in dog at 5 umol/kg, iv administered as bolus dose in 20 to 30% DMA in PBS. It counts as ADME, organism-based, Canis lupus familiaris. The note with it: in vivo.
A short description of series [9]: Fraction unbound in mouse plasma. It counts as ADME, cell-free.
Series [10] in a line: Lipophilicity, log D of the compound at pH 7.4 by shake-flask method. It counts as physicochemical. As to conditions: buffer.
The target of series [11] is T1, Phosphatidylinositol 4,5-bisphosphate 3-kinase catalytic subunit alpha isoform. Description: Inhibition of human recombinant PI3Kalpha using PIP2 by Kinase-Glo Plus assay. (In general: Kinase-Glo measures the ATP left after a reaction by luminescence.)
Target sequence in this assay (P42336 whole entry, canonical isoform): as the sequence (P42336 whole entry, looked up, canonical isoform) above
Series [12] is described as follows: Apparent permeability from apical to basolateral side of human Caco2 cells. As to conditions: Caco-2, read-out: permeability. It counts as ADME, cell-based. (Caco-2 monolayers are a common model of the intestinal barrier.)
Series [13] is described as follows: Oral bioavailability in mouse at 30 umol/kg administered as propylene glycol. It counts as ADME, organism-based. The note with it: in vivo.
A short description of series [14]: Clearance in mouse at 5 umol/kg, iv administered as bolus dose in 20 to 30% DMA in PBS. It counts as ADME, organism-based. The note with it: in vivo.
A short description of series [15]: AUC in mouse at 30 umol/kg, po administered as propylene glycol. It counts as ADME, organism-based. The note with it: plasma.
Series [16] deals with T3, Phosphatidylinositol 4,5-bisphosphate 3-kinase catalytic subunit delta isoform (Homo sapiens, UniProt O00329).
T3 sequence (O00329 whole entry): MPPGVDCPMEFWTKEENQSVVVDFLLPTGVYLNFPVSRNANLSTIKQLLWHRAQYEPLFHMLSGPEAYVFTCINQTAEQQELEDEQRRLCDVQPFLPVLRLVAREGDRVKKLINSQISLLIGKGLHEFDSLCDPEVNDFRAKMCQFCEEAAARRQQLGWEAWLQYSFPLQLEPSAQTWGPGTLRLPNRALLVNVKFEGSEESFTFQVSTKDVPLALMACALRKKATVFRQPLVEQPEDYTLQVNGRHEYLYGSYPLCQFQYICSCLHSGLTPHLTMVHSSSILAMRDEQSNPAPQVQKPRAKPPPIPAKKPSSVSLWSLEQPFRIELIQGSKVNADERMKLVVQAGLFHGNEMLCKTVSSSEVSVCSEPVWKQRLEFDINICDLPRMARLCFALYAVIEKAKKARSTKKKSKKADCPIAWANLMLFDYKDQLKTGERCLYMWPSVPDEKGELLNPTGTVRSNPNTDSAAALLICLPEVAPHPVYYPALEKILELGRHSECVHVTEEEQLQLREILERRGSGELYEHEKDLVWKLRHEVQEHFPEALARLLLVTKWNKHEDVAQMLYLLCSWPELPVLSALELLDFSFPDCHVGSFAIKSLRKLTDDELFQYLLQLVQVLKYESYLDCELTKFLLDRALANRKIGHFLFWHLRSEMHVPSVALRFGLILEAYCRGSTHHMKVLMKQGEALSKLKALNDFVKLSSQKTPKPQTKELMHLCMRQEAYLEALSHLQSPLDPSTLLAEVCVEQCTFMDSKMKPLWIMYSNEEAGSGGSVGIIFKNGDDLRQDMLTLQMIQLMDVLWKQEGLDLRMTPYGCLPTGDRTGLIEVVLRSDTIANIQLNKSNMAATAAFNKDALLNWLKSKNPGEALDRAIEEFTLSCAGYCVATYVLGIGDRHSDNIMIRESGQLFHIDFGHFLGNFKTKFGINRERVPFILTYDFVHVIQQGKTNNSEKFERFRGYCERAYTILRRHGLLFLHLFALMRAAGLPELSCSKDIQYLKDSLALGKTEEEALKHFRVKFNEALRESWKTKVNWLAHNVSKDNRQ
Kind of series: Inhibition of human recombinant PI3Kdelta using PIP2 by Kinase-Glo Plus assay.

In series [17] the target is T2, Phosphatidylinositol 4,5-bisphosphate 3-kinase catalytic subunit beta isoform. Description: Inhibition of PI3Kbeta in PTEN-null human MDA-MB-468 cells assessed as inhibition of Akt phosphorylation after 2 hrs. It counts as cell-based.
The next series has as its system Canis familiaris. Kind of series: Intrinsic clearance in dog at 5 umol/kg, iv administered as bolus dose in 20 to 30% DMA in PBS. It counts as ADME, organism-based, Canis lupus familiaris. The note with it: in vivo.
For series [18], the system named is Mus musculus. Description: Intrinsic clearance in mouse at 5 umol/kg, iv administered as bolus dose in 20 to 30% DMA in PBS. It counts as ADME, organism-based. The note with it: in vivo.
A short description of series [19]: Volume of distribution in dog at 5 umol/kg, iv administered as bolus dose in 20 to 30% DMA in PBS. The note with it: in vivo. It counts as ADME, organism-based, Canis lupus familiaris.
Series [20] in a line: Oral bioavailability in dog at 30 umol/kg administered as propylene glycol. As to conditions: in vivo. It counts as ADME, organism-based, Canis lupus familiaris.
In the next series the test system is BT-474. Description: Selectivity ratio of IC50 for human PI3Kbeta in human MDA-MB-468 cells to IC50 for PI3Kalpha in human BT474 cells. It counts as cell-based.
Series [21] deals with T4, Voltage-gated inwardly rectifying potassium channel KCNH2 (Homo sapiens, UniProt Q12809). Description: Inhibition of human ERG channel.
T4 sequence (Q12809 whole entry): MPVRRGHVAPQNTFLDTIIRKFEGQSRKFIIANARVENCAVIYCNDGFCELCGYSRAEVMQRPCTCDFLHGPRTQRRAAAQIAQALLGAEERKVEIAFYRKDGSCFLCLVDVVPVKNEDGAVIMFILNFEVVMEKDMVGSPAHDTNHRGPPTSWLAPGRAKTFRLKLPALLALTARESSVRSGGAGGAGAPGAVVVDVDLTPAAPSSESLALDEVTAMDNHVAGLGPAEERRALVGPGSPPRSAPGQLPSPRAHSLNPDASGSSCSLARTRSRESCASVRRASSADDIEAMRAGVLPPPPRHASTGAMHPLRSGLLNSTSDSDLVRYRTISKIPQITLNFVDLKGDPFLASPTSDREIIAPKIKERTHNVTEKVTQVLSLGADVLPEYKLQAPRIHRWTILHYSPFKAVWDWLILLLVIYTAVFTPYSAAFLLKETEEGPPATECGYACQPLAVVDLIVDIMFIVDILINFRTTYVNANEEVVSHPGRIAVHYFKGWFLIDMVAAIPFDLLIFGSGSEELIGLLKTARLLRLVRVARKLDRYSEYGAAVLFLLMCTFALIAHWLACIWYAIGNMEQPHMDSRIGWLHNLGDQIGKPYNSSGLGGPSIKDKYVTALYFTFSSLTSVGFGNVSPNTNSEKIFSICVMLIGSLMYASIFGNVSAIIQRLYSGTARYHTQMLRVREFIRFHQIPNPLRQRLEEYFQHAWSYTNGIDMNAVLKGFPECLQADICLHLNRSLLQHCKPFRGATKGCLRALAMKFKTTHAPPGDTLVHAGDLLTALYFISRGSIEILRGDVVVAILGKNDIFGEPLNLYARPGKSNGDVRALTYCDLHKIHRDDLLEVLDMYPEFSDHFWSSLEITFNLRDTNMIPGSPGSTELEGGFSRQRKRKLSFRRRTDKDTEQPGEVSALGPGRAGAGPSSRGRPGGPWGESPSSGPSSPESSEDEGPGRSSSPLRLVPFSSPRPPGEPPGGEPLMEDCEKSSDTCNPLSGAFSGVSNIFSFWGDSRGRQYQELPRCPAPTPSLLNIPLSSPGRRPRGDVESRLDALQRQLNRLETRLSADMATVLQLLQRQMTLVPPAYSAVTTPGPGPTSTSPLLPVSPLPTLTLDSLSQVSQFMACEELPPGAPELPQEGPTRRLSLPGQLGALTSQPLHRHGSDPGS
The test system of series [22] is Mus musculus. Description: Inhibition of Akt phosphorylation at Ser473 in PTEN-deficient human PC3 cells xenograft mouse model at 100 mg/kg, po single dose measured up to 8 hrs. It counts as functional, organism-based. The note with it: PC-3. The arrangement: dose 100 mg/kg. (A xenograft is tissue or cells of one species grown in another, often human tumour cells in immunodeficient mice.)

The target in series [23] is T4, Voltage-gated inwardly rectifying potassium channel KCNH2. Kind of series: Inhibition of human ERG channel at 100 uM.
The subject of series [24] is PC-3. Kind of series: Antitumor activity against human PC3 cells xenograft mouse model assessed as inhibition of tumor growth at 60 mg/kg, po bid in presence of 1-aminobenzotriazole. Details: dose 60 mg/kg. It counts as functional, organism-based.
For series [25], the target named is T3, Phosphatidylinositol 4,5-bisphosphate 3-kinase catalytic subunit delta isoform. Description: Inhibition of PI3Kdelta in human Jeko B cells assessed as inhibition of Akt phosphorylation after 2 hrs. It counts as cell-based.
Series [26] deals with PC-3. Description: Antitumor activity against human PC3 cells xenograft mouse model assessed as inhibition of tumor growth at 30 mg/kg, po bid in presence of 1-aminobenzotriazole. It counts as functional, organism-based. The arrangement: dose 30 mg/kg.

T2 sequence (P42338 whole entry, canonical isoform): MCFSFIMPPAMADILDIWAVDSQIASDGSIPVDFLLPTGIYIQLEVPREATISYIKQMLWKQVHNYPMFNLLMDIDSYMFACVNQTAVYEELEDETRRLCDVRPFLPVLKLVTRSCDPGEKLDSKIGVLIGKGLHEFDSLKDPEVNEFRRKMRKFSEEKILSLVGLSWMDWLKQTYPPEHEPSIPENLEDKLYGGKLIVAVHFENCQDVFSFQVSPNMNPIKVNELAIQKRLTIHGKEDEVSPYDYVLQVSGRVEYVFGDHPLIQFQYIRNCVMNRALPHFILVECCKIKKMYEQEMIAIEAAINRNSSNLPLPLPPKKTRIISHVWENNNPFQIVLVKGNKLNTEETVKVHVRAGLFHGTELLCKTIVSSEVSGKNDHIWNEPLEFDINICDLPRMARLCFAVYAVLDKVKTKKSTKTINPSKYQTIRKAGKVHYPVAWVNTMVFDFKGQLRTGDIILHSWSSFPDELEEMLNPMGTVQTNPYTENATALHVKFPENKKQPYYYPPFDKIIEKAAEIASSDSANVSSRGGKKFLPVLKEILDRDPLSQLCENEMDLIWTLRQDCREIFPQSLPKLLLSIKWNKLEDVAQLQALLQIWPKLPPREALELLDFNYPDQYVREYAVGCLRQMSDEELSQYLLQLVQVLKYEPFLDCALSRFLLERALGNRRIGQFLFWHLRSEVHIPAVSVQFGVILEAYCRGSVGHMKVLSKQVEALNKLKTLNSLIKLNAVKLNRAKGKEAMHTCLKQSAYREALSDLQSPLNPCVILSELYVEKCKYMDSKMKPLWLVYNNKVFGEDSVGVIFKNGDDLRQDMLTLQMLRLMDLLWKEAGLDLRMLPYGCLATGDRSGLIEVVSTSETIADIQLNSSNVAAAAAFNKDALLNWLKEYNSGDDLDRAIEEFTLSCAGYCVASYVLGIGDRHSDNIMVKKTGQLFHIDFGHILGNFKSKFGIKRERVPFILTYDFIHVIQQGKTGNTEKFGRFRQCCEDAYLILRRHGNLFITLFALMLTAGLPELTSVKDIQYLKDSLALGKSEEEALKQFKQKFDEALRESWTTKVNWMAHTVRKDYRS

In the case of `C[C@@H](Nc1cc(F)cc(F)c1F)c1cc(C(=O)N(C)C)cc2c(=O)cc(N3CCOCC3)oc12`, the IC50 in series [1] is 900 nM; in series [3] it was 8 nM; in series [7], 1500 nM; in series [11], 140 nM; in [16], 41 nM; in series [17], 6 nM. In series [2], the hepatocyte CLint is less than 5 µL/min/1e6 cells. Also, the Vd in series [4] was 1.7 L/kg; in series [19], 2.2 L/kg. In addition, the fraction unbound is 0.43 in [5], 0.27 in series [6] and 0.28 in series [9]. For the same compound, the clearance in [8] came to 28 mL/min/kg; in series [14] it was 137 mL/min/kg; with Canis familiaris, 16 mL/min/kg; with Mus musculus [18], 99 mL/min/kg. For the same compound, the logD in [10] worked out at 2.3. The Papp A→B in series [12] stood at 16 ×10⁻⁶ cm/s. Besides, the bioavailability in series [13] stood at 42%; in [20], 47%. In addition, in series [15], the AUC was determined as 1.5 µM·h.
In the case of `C[C@H]1CN(c2cc(=O)c3cc(C(=O)N(C)C)cc([C@@H](C)Nc4cc(F)cc(F)c4)c3o2)CCO1`, the IC50 in series [1] stood at 110 nM; in [3], 4 nM; in [7] it was 140 nM; in series [11], 12 nM; in [16] it was 12 nM; in series [17] it was 0.4 nM. For the same compound, the hepatocyte CLint in [2] was less than 3 µL/min/1e6 cells. Also, the Vd was determined as 2.2 L/kg in [4] and 2.5 L/kg in series [19]. The fraction unbound in series [5] worked out at 0.2; in [6] it was 0.14; in series [9], 0.12. For the same compound, the clearance in series [8] was determined as 69 mL/min/kg; in [14], 76 mL/min/kg; in the series with Canis familiaris it was 15 mL/min/kg; with Mus musculus [18] it was 53 mL/min/kg. In series [10], this compound had a logD of 2.7. For the same compound, the Papp A→B in series [12] is 14 ×10⁻⁶ cm/s. Further, the bioavailability in series [13] worked out at 50%; in [20], 5%. In [15], this compound gave an exposure (AUC) of 3.3 µM·h.
As to `CN(C)C(=O)c1cc(CNc2cc(F)cc(F)c2)c2oc(N3CCOCC3)cc(=O)c2c1`, the IC50 was 3200 nM in [1]; 8 nM in [3]; 3200 nM in series [7]; 93 nM in series [11]; 80 nM in series [16]; 35 nM in series [17]. Besides, the hepatocyte CLint in series [2] is less than 3 µL/min/1e6 cells. The compound further displayed a logD in [10] of 2.2. Further, the Ratio IC50 in the series on BT-474 came out at 100.
Regarding `C[C@H](c1cc(C(=O)N(C)C)cc2c(=O)cc(N3CCOCC3)oc12)N(C)c1cc(F)cc(F)c1`, the IC50 in series [1] is 3000 nM; in [21], 19000 nM; in series [7], 3500 nM; in [11], 280 nM; in [16] it was 73 nM. For the same compound, the hepatocyte CLint in series [2] was less than 4 µL/min/1e6 cells. Also, the Vd was 2 L/kg in series [4] and 2.2 L/kg in [19]. Besides, the fraction unbound in series [5] was found to be 0.16; in [6], 0.12; in series [9], 0.1. The clearance in series [8] was determined as 27 mL/min/kg; in series [14] it was 34 mL/min/kg; with Canis familiaris, 17 mL/min/kg; in the series with Mus musculus [18], 37 mL/min/kg. This compound also displayed a logD in series [10] of 2.4. Also, the Papp A→B in series [12] amounted to 42 ×10⁻⁶ cm/s. Besides, the bioavailability in series [13] stood at 68%; in [20], 31%. This compound also yielded an AUC in [15] of 8.6 µM·h.
Regarding `C[C@@H](Nc1cc(F)cc(F)c1)c1cc(C(=O)N(C)C)cc2c(=O)cc(N3CCOCC3)oc12` [AZD-8186], the IC50 in [1] stood at 752 nM; in series [7] it was 675 nM; in series [11], 35 nM; in series [16], 12 nM; in series [25], 17 nM. For the same compound, the inhibition entry in the series on Mus musculus [22], with PC-3 [24] and with PC-3 [26] was “Active” each time. The hepatocyte CLint in series [2] is 4 µL/min/1e6 cells. Moreover, the Vd is 1.3 L/kg in series [4] and 2.2 L/kg in [19]. Further, the results for the fraction unbound in series [5], in series [6] and in series [9] were 0.31, 0.19 and 0.16, respectively. The clearance in series [8] was 36 mL/min/kg; in series [14], 77 mL/min/kg; with Canis familiaris, 11 mL/min/kg; with Mus musculus [18], 73 mL/min/kg. Further, the logD in series [10] amounted to 2.3. For the same compound, the Papp A→B in [12] worked out at 8 ×10⁻⁶ cm/s. Further, the bioavailability in series [13] came to 18%; in series [20] it was 23%. For the same compound, the “inhibition (INH)” value in series [23] is “Not Active”. In series [15], this compound gave an exposure (AUC) of 1.2 µM·h.
